Measurements: patent publication US20120270237A9, “METHODS FOR THE IDENTIFICATION OF KINASE INTERACTING MOLECULES AND FOR THE PURIFICATION OF KINASE PROTEINS” (Cellzone AG, priority 2009, published 2012)

How the values were obtained:
Experiment in all cases: Kinobeads competition binding, HeLa Placenta lysate mix
Settings in all cases: 10 μM free compound
[1] = target: T1, MRCKa (Homo sapiens, UniProt Q5VT25)
T1 construct: capturing and identification of kinases from mixed HeLa placenta lysates; endogenous in cells; host or cells: mixed lysate of HeLa cells and placenta tissue
Experimental: (§1) To one aliquot of cell lysate 10 μM of the free compound (FIG. 3, CZC31326) was added and allowed to bind to proteins in the lysate. Then the affinity matrix with the immobilized compound was added to capture proteins that were not interacting with the previously added free compound. Beads were separated from the lysate and bead bound proteins were eluted in SDS sample buffer and subsequently separated by SDS-Polyacrylamide gel electrophoresis (FIG. 10). Suitable gel bands were cut out and subjected to in-gel proteolytic digestion with trypsin. The second lysate aliquot was processed identically, however no free compound was added (DMSO solvent control). Peptides originating from samples 1 and 2 were labeled with iTRAQ reagents (iTRAQ 114 and iTRAQ 117) and the combined samples were analyzed with a nano-flow liquid chromatography system coupled online to a tandem mass spectrometer (LC-MS/MS) experiment followed by iTRAQ reporter ion quantification in the MS/MS spectra as described in Example 2.

[2] = target: T2, TNK1 (Homo sapiens, UniProt Q13470)
T2 construct: capturing and identification of kinases from mixed HeLa placenta lysates; endogenous in cells; host or cells: mixed lysate of HeLa cells and placenta tissue
Experimental: as §1

[3] = target: T3, CaMKK1 (Homo sapiens, UniProt Q8N5S9)
T3 construct: capturing and identification of kinases from mixed HeLa placenta lysates; endogenous in cells; host or cells: mixed lysate of HeLa cells and placenta tissue
Experimental: as §1

[4] = target: T4, FAK (Homo sapiens, UniProt Q05397)
T4 construct: capturing and identification of kinases from mixed HeLa placenta lysates; endogenous in cells; host or cells: mixed lysate of HeLa cells and placenta tissue
Experimental: as §1

[5] = target: T5, AMPKa2 (Homo sapiens, UniProt P54646)
T5 construct: capturing and identification of kinases from mixed HeLa placenta lysates; endogenous in cells; host or cells: mixed lysate of HeLa cells and placenta tissue
Experimental: as §1

[6] = target: T6, MRCKb (Homo sapiens, UniProt Q9Y5S2)
T6 construct: capturing and identification of kinases from mixed HeLa placenta lysates; endogenous in cells; host or cells: mixed lysate of HeLa cells and placenta tissue
Experimental: as §1

[7] = target: T7, KDR (Homo sapiens, UniProt P35968)
T7 construct: capturing and identification of kinases from mixed HeLa placenta lysates; endogenous in cells; host or cells: mixed lysate of HeLa cells and placenta tissue
Experimental: as §1

[8] = target: T8, PKG1 (Homo sapiens, UniProt Q13976)
T8 construct: capturing and identification of kinases from mixed HeLa placenta lysates; endogenous in cells; host or cells: mixed lysate of HeLa cells and placenta tissue
Experimental: as §1

[9] = target: T9, MAP3K6 (Homo sapiens, UniProt O95382)
T9 construct: capturing and identification of kinases from mixed HeLa placenta lysates; endogenous in cells; host or cells: mixed lysate of HeLa cells and placenta tissue
Experimental: as §1

[10] = target: T10, SRC (Homo sapiens, UniProt P12931)
T10 construct: capturing and identification of kinases from mixed HeLa placenta lysates; endogenous in cells; host or cells: mixed lysate of HeLa cells and placenta tissue
Experimental: as §1

[11] = target: T11, TIE2 (Homo sapiens, UniProt Q02763)
T11 construct: capturing and identification of kinases from mixed HeLa placenta lysates; endogenous in cells; host or cells: mixed lysate of HeLa cells and placenta tissue
Experimental: as §1

[12] = target: T12, MAP3K7 (Homo sapiens, UniProt O43318)
T12 construct: capturing and identification of kinases from mixed HeLa placenta lysates; endogenous in cells; host or cells: mixed lysate of HeLa cells and placenta tissue
Experimental: as §1

[13] = target: T13, FLT4 (Homo sapiens, UniProt P35916)
T13 construct: capturing and identification of kinases from mixed HeLa placenta lysates; endogenous in cells; host or cells: mixed lysate of HeLa cells and placenta tissue
Experimental: as §1

[14] = target: MLK4 (Homo sapiens, UniProt Q5TCX8); design: capturing and identification of kinases from mixed HeLa placenta lysates; endogenous in cells; host or cells: HeLa cells mixed with placenta tissue lysate
Experimental: as §1

[15] = target: SLK (Homo sapiens, UniProt Q9H2G2); design: capturing and identification of kinases from mixed HeLa placenta lysates; endogenous in cells; host or cells: HeLa cells mixed with placenta tissue lysate
Experimental: as §1

[16] = target: PYK2 (Homo sapiens, UniProt Q14289); design: capturing and identification of kinases from mixed HeLa placenta lysates; endogenous in cells; host or cells: HeLa cells mixed with placenta tissue lysate
Experimental: as §1

[17] = target: PKN2 (Homo sapiens, UniProt Q16513); design: capturing and identification of kinases from mixed HeLa placenta lysates; endogenous in cells; host or cells: HeLa cells mixed with placenta tissue lysate
Experimental: as §1

[18] = target: RSK2 (Homo sapiens, UniProt P51812); design: capturing and identification of kinases from mixed HeLa placenta lysates; endogenous in cells; host or cells: HeLa cells mixed with placenta tissue lysate
Experimental: as §1

[19] = target: PKCa (Homo sapiens, UniProt P17252); design: capturing and identification of kinases from mixed HeLa placenta lysates; endogenous in cells; host or cells: HeLa cells mixed with placenta tissue lysate
Experimental: as §1

[20] = target: T14, MST1 (Homo sapiens, UniProt Q13043); design: capturing and identification of kinases from mixed HeLa placenta lysates; endogenous in cells; host or cells: HeLa cells mixed with placenta tissue lysate
T14 sequence (Q13043 1-487): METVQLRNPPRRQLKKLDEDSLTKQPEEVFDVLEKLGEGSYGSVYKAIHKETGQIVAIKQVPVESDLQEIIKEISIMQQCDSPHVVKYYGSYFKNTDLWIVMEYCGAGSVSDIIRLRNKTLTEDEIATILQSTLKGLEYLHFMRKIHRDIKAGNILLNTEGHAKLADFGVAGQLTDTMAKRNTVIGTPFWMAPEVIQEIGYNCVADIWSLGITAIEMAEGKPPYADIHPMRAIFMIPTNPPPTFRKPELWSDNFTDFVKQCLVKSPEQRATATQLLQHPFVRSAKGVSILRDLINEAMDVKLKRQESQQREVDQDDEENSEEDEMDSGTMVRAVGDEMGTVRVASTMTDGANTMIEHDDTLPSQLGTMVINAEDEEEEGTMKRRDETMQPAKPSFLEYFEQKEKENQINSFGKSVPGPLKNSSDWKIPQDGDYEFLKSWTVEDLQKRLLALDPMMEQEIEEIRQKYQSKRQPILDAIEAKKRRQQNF
Experimental: as §1

Chain of MLK4 (Q5TCX8 whole entry): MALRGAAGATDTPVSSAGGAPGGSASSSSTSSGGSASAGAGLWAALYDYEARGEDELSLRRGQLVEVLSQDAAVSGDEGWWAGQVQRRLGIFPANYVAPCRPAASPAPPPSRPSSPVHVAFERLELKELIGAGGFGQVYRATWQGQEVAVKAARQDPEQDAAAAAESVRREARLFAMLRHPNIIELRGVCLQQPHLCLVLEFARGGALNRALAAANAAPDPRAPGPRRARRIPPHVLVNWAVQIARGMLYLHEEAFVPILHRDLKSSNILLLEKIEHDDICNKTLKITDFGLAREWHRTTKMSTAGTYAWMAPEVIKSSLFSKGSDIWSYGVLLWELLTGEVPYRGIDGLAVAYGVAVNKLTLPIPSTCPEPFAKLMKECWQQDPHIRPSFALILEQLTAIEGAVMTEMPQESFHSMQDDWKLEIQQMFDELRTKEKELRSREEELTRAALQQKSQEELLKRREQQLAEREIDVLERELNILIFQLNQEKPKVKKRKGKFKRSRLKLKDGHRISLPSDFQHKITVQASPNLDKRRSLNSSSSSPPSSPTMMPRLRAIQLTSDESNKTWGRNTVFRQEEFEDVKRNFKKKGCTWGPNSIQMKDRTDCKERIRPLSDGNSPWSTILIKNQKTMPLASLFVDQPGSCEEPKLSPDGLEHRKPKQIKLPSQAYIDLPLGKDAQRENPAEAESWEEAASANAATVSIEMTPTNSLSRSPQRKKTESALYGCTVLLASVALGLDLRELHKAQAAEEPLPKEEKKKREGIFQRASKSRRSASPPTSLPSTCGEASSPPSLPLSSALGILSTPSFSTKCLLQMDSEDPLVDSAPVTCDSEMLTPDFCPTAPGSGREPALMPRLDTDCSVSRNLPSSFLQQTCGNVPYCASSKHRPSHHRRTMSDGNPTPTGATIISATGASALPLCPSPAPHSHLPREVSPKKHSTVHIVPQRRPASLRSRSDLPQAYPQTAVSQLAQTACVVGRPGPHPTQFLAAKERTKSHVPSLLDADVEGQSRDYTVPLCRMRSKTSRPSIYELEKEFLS
T12 sequence (O43318 whole entry): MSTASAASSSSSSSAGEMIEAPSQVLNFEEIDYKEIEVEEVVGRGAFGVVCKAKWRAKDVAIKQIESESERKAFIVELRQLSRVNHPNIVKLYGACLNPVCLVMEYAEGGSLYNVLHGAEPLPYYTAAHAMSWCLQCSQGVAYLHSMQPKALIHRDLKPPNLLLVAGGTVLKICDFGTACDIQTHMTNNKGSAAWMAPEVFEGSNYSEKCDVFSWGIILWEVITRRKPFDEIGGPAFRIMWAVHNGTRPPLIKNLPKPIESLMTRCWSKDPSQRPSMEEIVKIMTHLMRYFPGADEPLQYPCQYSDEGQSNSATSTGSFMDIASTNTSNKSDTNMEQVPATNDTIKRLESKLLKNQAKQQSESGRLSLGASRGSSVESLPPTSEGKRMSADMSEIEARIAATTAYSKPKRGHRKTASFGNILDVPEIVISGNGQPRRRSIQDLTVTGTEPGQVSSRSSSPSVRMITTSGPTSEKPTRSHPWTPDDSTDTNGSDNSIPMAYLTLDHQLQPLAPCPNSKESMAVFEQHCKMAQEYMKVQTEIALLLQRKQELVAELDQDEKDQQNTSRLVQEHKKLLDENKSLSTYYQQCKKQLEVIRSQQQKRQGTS
T6 sequence (Q9Y5S2 whole entry): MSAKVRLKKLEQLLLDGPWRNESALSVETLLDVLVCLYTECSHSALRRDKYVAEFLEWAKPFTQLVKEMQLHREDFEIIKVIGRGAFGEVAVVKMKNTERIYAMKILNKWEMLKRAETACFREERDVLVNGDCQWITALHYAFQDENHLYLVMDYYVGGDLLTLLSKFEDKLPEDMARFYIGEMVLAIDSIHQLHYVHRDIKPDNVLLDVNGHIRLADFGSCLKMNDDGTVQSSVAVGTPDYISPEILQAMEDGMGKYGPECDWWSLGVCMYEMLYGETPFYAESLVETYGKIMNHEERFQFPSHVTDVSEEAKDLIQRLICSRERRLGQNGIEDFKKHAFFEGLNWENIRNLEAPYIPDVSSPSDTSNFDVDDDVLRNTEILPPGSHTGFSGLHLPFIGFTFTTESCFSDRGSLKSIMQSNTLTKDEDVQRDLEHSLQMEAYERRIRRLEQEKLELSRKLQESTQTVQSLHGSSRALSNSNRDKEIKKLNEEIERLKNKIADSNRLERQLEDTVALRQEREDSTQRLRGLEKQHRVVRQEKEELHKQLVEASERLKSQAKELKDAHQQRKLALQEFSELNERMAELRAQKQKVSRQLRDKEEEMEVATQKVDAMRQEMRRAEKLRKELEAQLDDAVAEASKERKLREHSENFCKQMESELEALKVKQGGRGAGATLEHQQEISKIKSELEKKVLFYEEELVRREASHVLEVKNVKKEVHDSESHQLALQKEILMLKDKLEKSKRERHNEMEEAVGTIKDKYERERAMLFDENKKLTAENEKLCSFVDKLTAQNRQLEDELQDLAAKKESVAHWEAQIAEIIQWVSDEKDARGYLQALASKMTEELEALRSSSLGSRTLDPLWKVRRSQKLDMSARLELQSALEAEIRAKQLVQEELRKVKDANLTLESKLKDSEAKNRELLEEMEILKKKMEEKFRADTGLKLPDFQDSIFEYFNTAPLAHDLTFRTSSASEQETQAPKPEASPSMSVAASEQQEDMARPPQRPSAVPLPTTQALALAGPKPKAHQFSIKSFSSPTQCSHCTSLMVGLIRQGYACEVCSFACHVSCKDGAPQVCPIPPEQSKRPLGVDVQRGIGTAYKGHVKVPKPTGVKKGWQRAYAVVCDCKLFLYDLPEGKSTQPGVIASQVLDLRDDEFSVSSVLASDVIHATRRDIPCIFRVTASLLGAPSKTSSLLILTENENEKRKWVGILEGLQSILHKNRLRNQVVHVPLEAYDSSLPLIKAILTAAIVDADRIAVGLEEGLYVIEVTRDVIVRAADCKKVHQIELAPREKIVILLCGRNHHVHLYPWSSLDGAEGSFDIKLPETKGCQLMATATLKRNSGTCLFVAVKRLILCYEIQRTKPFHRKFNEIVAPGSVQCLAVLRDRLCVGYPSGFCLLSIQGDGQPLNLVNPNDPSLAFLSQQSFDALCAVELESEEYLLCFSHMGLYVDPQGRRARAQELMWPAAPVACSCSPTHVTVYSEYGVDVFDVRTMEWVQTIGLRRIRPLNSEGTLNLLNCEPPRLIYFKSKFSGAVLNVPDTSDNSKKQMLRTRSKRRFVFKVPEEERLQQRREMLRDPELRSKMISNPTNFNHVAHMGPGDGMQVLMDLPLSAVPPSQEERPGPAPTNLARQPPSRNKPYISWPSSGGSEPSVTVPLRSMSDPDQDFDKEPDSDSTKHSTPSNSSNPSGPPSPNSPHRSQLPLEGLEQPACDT
T3 sequence (Q8N5S9 whole entry): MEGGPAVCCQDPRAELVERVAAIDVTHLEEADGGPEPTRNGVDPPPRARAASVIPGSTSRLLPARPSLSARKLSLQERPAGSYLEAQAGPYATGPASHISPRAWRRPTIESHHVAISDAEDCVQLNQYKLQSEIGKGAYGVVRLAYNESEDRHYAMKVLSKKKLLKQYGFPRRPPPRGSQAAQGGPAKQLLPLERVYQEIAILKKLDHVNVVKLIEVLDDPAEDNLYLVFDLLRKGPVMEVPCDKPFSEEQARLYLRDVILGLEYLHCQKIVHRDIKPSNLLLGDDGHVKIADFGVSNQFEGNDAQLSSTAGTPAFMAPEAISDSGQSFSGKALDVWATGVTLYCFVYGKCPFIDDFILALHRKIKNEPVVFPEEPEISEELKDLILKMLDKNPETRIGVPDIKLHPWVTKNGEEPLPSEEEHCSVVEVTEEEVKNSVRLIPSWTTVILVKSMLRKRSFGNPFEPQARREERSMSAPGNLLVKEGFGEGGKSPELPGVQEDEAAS
T10 sequence (P12931 whole entry): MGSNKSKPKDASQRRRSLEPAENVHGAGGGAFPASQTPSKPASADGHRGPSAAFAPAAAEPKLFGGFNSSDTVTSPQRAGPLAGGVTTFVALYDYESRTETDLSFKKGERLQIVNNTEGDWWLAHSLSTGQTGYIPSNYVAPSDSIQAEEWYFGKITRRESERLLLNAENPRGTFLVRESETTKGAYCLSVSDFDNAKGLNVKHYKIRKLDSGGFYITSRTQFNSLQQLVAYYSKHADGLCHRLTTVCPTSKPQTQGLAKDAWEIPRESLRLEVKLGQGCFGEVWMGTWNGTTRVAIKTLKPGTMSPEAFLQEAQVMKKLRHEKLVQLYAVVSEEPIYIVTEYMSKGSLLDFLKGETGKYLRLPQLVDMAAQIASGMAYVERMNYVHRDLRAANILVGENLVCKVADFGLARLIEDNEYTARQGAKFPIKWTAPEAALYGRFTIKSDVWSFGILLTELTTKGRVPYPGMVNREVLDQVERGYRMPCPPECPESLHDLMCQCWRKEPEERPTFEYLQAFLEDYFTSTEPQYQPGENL

## CS(=O)(=O)Nc1ccccc1Nc1nc(Nc2cccc(OCCN)c2)ncc1Cl [CZC31326, N-(2-(2-(3-(2-aminoethoxy)phenylamino)-5-chloropyrimidin-4-ylamino)phenyl)methanesulfonamide]
[1]
  inhibition at 10 µM: 92.1%
[2]
  inhibition at 10 µM: 94.3%
[3]
  inhibition at 10 µM: 94.2%
[4]
  inhibition at 10 µM: 93.8%
[5]
  inhibition at 10 µM: 95.2%
[6]
  inhibition at 10 µM: 94%
[7]
  inhibition at 10 µM: 90%
[8]
  inhibition at 10 µM: 90.4%
[9]
  inhibition at 10 µM: 84.3%
[10]
  inhibition at 10 µM: 92.2%
[11]
  inhibition at 10 µM: 91.6%
[12]
  inhibition at 10 µM: 82.1%
[13]
  inhibition at 10 µM: 89.3%
[14]
  inhibition at 10 µM: 88.9%
[15]
  inhibition at 10 µM: 93.2%
[16]
  inhibition at 10 µM: 92.7%
[17]
  inhibition at 10 µM: 94%
[18]
  inhibition at 10 µM: 96%
[19]
  inhibition at 10 µM: 94.9%
[20]
  Competition %: 94.6%
